Read-outs that look alike come from different tables or passages of the source.
Target: glucocorticoid receptor (GAL4 DBD-GR) (Homo sapiens (Human), UniProt P04150)
Assay: GR cell-based assays (GRE agonist / GRE antagonist), CHO-Gal4/GR luciferase reporter
Method in brief: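 CHO cells stably carrying GAL4 DBD-GR ligand-binding-domain fusion and a GAL4-UAS firefly luciferase reporter were treated in Opti-MEM with 8 half-log concentrations from 10 μM to 0.003 μM (0.5% DMSO, quadruplicates). Antagonist mode measured repression of beclomethasone-induced signal. Luminescence after lysis gave EC50 or IC50.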

[1] = CHO-Gal4/GR reporter cells, agonist mode (EC50) or antagonist mode against beclometasone (IC50), 6 hour incubation

Chain of glucocorticoid receptor (GAL4 DBD-GR) (P04150 524-758): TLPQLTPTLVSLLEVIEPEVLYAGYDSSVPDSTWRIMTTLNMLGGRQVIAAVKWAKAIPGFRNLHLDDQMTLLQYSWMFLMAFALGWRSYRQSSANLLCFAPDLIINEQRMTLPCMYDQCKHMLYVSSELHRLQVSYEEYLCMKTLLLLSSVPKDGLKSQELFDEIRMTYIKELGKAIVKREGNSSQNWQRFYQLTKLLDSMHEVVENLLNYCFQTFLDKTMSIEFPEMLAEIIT

IC50 (read-out: IC50 or EC50) [µM]	IC50 [1] [µM]	Structure (SMILES)
< 0.1	–	CC[C@@H]1[C@@H](NC(=O)C2CC2)[C@@](F)(Cc2ccccc2)C(=O)N1c1ccc2c(cnn2-c2ccc(F)cc2)c1 (racemic) [Example 137, N-(rac-(2R,3R,4S)-4-benzyl-2-ethyl-4-fluoro-1-(1-(4-fluorophenyl)-1H-indazol-5-yl)-5-oxopyrrolidin-3-yl)cyclopropanecarboxamide]
< 0.1	–	C[C@@]1(CC(F)F)C(=O)N(c2ccc3c(cnn3-c3ccc(F)cc3)c2)[C@H](c2ccccc2)[C@H]1NC(=O)C1CC1 (racemic) [Example 148, N-(rac-(2R,3S,4S)-4-(2,2-difluoroethyl)-1-(1-(4-fluorophenyl)-1H-indazol-5-yl)-4-methyl-5-oxo-2-phenylpyrrolidin-3-yl)cyclopropanecarboxamide]
< 0.1	–	C[C@@]1(CC2CC2)C(=O)N(c2ccc3c(cnn3-c3ccc(F)cc3)c2)[C@H](c2ccccc2)[C@H]1NC(=O)C1CC1 (racemic) [Example 149, N-(rac-(2R,3S,4S)-4-(cyclopropylmethyl)-1-(1-(4-fluorophenyl)-1H-indazol-5-yl)-4-methyl-5-oxo-2-phenylpyrrolidin-3-yl)cyclopropanecarboxamide]
0.1 to 1	–	O=C(N[C@H]1C(CCc2ccccc2)C(=O)N(c2ccc3c(cnn3-c3ccc(F)cc3)c2)[C@@H]1c1ccccc1)C1CC1 (single isomer, unassigned) [Example 127]
–	0.1 to 1	O=C(N[C@H]1C(CCc2ccccc2)C(=O)N(c2ccc3c(cnn3-c3ccc(F)cc3)c2)[C@@H]1c1ccccc1)C1CC1 (single isomer, unassigned) [Example 130]

The next lines start with the molecule.

Structure (SMILES)	IC50 (read-out: IC50 or EC50) [µM]	IC50 [1] [µM]
CC1(C)C(=O)N(c2ccc3c(cnn3-c3ccc(F)cc3)c2)[C@H](c2ccccc2)[C@H]1NS(C)(=O)=O [Example 34a, N-((2R,3S)-1-(1-(4-fluorophenyl)-1H-indazol-5-yl)-4,4-dimethyl-5-oxo-2-phenylpyrrolidin-3-yl)methanesulfonamide]	< 0.1	–
CC1(C)C(=O)N(c2ccc3c(cnn3-c3ccc(F)cc3)c2)[C@@H](c2ccccc2)[C@@H]1NS(C)(=O)=O [Example 34b, N-((2S,3R)-1-(1-(4-fluorophenyl)-1H-indazol-5-yl)-4,4-dimethyl-5-oxo-2-phenylpyrrolidin-3-yl)methanesulfonamide]	0.1 to 1	–
CC1(C)C(=O)N(c2ccc3c(cnn3-c3ccc(F)cc3)c2)[C@H](c2ccccc2)[C@H]1NS(=O)(=O)C1CC1 [Example 35a, N-((2R,3S)-1-(1-(4-fluorophenyl)-1H-indazol-5-yl)-4,4-dimethyl-5-oxo-2-phenylpyrrolidin-3-yl)cyclopropanesulfonamide]	–	< 0.1
CC1(C)C(=O)N(c2ccc3c(cnn3-c3ccc(F)cc3)c2)[C@H](c2ccccc2)[C@H]1NC(=O)c1cnco1 [Example 36a, N-((2R,3S)-1-(1-(4-fluorophenyl)-1H-indazol-5-yl)-4,4-dimethyl-5-oxo-2-phenylpyrrolidin-3-yl)oxazole-5-carboxamide]	0.1 to 1	–
CC1(C)C(=O)N(c2ccc3c(cnn3-c3ccc(F)cc3)c2)[C@@H](c2ccccc2)[C@@H]1NC(=O)c1cnco1 [Example 36b, N-((2S,3R)-1-(1-(4-fluorophenyl)-1H-indazol-5-yl)-4,4-dimethyl-5-oxo-2-phenylpyrrolidin-3-yl)oxazole-5-carboxamide]	0.1 to 1	–
Cn1ccc(C(=O)N[C@@H]2[C@@H](c3ccccc3)N(c3ccc4c(cnn4-c4ccc(F)cc4)c3)C(=O)C2(C)C)n1 [Example 37, N-((2R,3S)-1-(1-(4-fluorophenyl)-1H-indazol-5-yl)-4,4-dimethyl-5-oxo-2-phenylpyrrolidin-3-yl)-1-methyl-1H-pyrazole-3-carboxamide]	–	< 0.1
Cc1ncsc1C(=O)N[C@H]1[C@H](c2ccccc2)N(c2ccc3c(cnn3-c3ccc(F)cc3)c2)C(=O)C1(C)C [Example 38a, N-((2S,3R)-1-(1-(4-fluorophenyl)-1H-indazol-5-yl)-4,4-dimethyl-5-oxo-2-phenylpyrrolidin-3-yl)-4-methylthiazole-5-carboxamide]	0.1 to 1	–

— patent publication US12358907B2, “Substituted pyrrolidine amides III” (GRÜNENTHAL GMBH, priority 2019, dated 2025)
